Key:
[1] = target: T1, co-localization of 5-LOX with FLAP (Homo sapiens, UniProt P20292); assay: Immunofluorescence microscopy of 5-LOX subcellular redistribution / co-localization with FLAP; type: cell-based; conditions: human neutrophils or monocytes; diflapolin 1 µM, MK886 0.3 µM, zileuton 3 µM
T1 construct: endogenous in cells; host or cells: freshly isolated human monocytes (immunofluorescence also in neutrophils)
T1 sequence (P20292 1-161): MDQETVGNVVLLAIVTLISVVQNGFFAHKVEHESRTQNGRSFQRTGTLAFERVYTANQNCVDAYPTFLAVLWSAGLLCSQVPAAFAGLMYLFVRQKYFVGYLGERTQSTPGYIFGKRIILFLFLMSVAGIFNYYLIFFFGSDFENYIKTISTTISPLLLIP
Method: The incubations were stopped by paraformaldehyde fixation (4%, 20 min, RT) and cells were permeabilized using 100% ice-cold acetone (5 min, 4 °C). Blocking with non-immune goat serum (30 min, RT) was performed prior to overnight incubation (4 °C) with primary monoclonal-mouse-anti-5-LOX antibody (1:100 dilution, a generous gift from Dr. D. Steinhilber, Goethe University Frankfurt, Germany) and polyclonal-rabbit-anti-FLAP antibody (5 µg/mL, Abcam, Cambridge, UK). […] Cells were visualized by a Zeiss Axiovert 200 M microscope, and a Plan Neofluar × 100/1.30 Oil (DIC III) objective (Carl Zeiss, Jena, Germany) and image acquisition was performed using an AxioCam MR camera (Carl Zeiss).

[2] = target: T2, sEH in HepG2 cells (Homo sapiens, UniProt P34913); assay: 14,15-DiHETrE formation in HepG2 cells (cell-based sEH assay); conditions: HepG2 cells; AUDA 5 µM, MK886 0.3 µM, SC57461A 0.3 µM
T2 construct: sEH is constitutively expressed in the human liver cancer cell line HepG2; endogenous in cells; host or cells: HepG2
T2 sequence (P34913 1-555): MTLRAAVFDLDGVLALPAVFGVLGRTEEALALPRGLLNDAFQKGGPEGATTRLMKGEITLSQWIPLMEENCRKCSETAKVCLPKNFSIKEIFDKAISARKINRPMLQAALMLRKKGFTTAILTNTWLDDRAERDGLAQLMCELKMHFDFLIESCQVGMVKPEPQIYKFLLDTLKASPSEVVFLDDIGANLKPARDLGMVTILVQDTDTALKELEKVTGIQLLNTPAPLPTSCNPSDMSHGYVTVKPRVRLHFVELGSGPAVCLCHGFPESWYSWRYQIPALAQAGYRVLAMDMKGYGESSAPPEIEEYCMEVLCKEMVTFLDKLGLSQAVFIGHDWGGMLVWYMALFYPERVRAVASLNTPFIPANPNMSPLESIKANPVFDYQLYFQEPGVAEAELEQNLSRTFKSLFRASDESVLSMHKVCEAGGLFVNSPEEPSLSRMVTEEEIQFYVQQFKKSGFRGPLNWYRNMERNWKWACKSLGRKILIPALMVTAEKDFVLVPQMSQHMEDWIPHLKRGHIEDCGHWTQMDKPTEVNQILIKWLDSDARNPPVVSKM
Method: To assay the activity of sEH in a cell-based model, HepG2 cells were harvested by trypsinization, pelleted (1,200 rpm, 5 min, 4 °C) and resuspended in PGC buffer to a final concentration of 1.5 × 10^6 cells/mL. […] Briefly, samples were acidified with four volumes of MilliQ water pH 3.5 containing PBS-HCl and subjected to Waters Sep-Pak® Vac 6cc columns (Waters, Milford, MA, USA), washed once with MilliQ and hexane, and eluted with methylformiate. The nitrogen-dried samples were dissolved in 50% methanol, and 14,15-DiHETrE formation was measured by UPLC-MS/MS using an Acquity™ UPLC system (Waters, Milford, MA, USA) and a QTRAP 5500 Mass Spectrometer (ABSciex, Darmstadt, Germany) equipped with a Turbo V™ Source and electrospray ionization (ESI). […] Ion spray voltage was set to 4000 V, the heater temperature to 500 °C, the declustering potential to 50–80 eV, the entrance potential to 10 eV, the collision cell exit potential to 10–13 eV, collision energies of 10 eV, the spray gas pressure to 40 psi, medium collision gas and the curtain gas pressure to 35 psi.

[3] = target: T3, purified ovine COX-1 (Ovis aries, UniProt P05979); assay: COX-1 activity, cell-free (12-HHT formation); type: biochemical; conditions: 10 µM
T3 construct: purchased Cayman Chemical (Biomol, Hamburg, Germany)
T3 sequence (P05979 25-600): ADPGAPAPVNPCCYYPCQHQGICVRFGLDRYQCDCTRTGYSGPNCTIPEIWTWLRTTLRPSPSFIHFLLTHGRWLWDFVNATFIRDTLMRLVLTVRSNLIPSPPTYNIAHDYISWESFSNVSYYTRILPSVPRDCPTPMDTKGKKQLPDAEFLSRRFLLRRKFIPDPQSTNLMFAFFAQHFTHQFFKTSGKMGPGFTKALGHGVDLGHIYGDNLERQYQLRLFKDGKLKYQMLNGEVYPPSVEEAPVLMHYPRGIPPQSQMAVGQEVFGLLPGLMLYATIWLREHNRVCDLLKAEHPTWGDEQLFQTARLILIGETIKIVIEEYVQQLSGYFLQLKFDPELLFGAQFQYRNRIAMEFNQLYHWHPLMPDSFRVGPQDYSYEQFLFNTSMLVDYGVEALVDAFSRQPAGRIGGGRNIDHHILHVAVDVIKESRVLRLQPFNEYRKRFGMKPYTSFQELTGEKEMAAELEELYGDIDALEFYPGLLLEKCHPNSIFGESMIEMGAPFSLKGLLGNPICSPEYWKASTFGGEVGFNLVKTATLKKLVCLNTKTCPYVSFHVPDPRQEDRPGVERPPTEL
Method: COX activity was assayed by using purified ovine COX-1 and recombinant human COX-2, respectively. Enzymes were diluted in Tris buffer (100 mM, pH 8) supplemented with glutathione (5 mM), EDTA (100 µM) and hemoglobin (5 µM) to a final concentration of 50 U/mL (COX-1) or 20 U/mL (COX-2) and pre-incubated with test compounds or vehicle (0.1% DMSO) for 5 min at RT. After 30 sec at 37 °C, reactions were started with 5 µM AA (COX-1) or 2 µM AA (COX-2) and stopped after 5 min at 37 °C by addition of one volume of ice-cold methanol. Solid phase extraction was performed as described above after addition of 200 ng of internal PGB1 standard and COX product formation was determined by analysis of 12-HHT formation as reported before.

Row | Structure (SMILES) | co-localization of 5-LOX with FLAP [1] | effect on sEH in the cell-based sEH assay [2] | inhibition of COX-1 activity [3]
1 | CC(C)c1ccc2c(c1)c(SC(C)(C)C)c(CC(C)(C)C(=O)O)n2Cc1ccc(Cl)cc1 [MK886, 3-[1-(4-chlorobenzyl)-3-t-butyl-thio-5-isopropylindol-2-yl]-2,2 - dimethylpropanoic acid] | neither diflapolin nor the FLAP inhibitor MK886 or the 5-LOX inhibitor zileuton prevented co-localization | no impact | 
2 | Cc1cc(OCc2nc3ccccc3s2)ccc1NC(=O)Nc1ccc(Cl)c(Cl)c1 [diflapolin, N-[4-(benzothiazol-2-ylmethoxy)-2-methylphenyl]-N′-(3,4-dichlorophenyl)urea] |  |  | did not significantly inhibit

Source: paper PMC5571211 (Scientific Reports, 2017)
